The values that follow come from patent publication US12551500B2, “C6′-substituted locked nucleic acid-modified cap analog and use thereof” (Hangzhou Tianlong Pharmaceutical Co., Ltd., priority 2024, dated 2026).

The target in series [1] is T1, T7 RNA polymerase (Escherichia phage T7, UniProt P00573). In words: In vitro transcription yield of mRNA with cap analog (co-transcriptional capping). It is filed as biochemical. Also on record: in vitro transcription yield of mRNA: unit not given here. How it is done:
(1) Capping synthesis using cap analogs
The plasmid was first linearized with plasmid linearizing enzyme, and then the linearized plasmid was purified.
(2) In vitro transcription and synthesis of mRNA
(§1) YK-CAP-001 to 006 and compound 14 in Table 1 were respectively used as cap analogs.
(§2) During the experiment, the volume of materials required for the system was first calculated, and then sample addition was conducted. The system was first added with sterile enzyme-free water, followed by the sequential addition of 10× buffer, NTPs, and cap analogs, mixed well, and gently centrifuged. Nuclease inhibitors, inorganic pyrophosphatase, T7 RNA polymerase, and linearized DNA templates were then added thereto. The system was mixed well, gently centrifuged, and incubated at 37° C. After 2 hours of incubation, the system was added with 1 U of DNase I and incubated at 37° C. for another 30 minutes. The mRNA precipitate was then washed with 75% ethanol, and after the ethanol was briefly evaporated to dryness, the mRNA was redissolved in sterile enzyme-free water.
(3) The transcription product was purified, and the in vitro transcription yield of mRNA was recorded.

Series [2] addresses T1, T7 RNA polymerase. The series can be described thus: Capping rate of in vitro transcribed mRNA by LC-MS. It is filed as biochemical. The conditions noted are these: mRNA transcribed with the cap analog, LC-MS. How it is done: as §1, §2
(4) The obtained mRNA was subjected to an annealing reaction with a probe.
The annealing reaction was performed in a PCR instrument: 95° C. for 5 minutes; 65° C. for 2 minutes; 55° C. for 2 minutes; 40° C. for 2 minutes; 22° C. for 2 minutes.
(5) Magnetic bead pretreatment and probe binding: 100 μL of magnetic beads was placed on a magnetic frame for pretreatment. The magnetic bead solution was added with 120 μL of sample and incubated at room temperature for 30 minutes with slow mixing.
(6) mRNA splicing and obtaining the 5′ single-strand sequence bound to the probe
The mixture was added with 20 μL of RNase H (5 U/μL) and incubated at 37° C. for 3 hours with mixing every half hour. After incubation, the magnetic beads were washed and then added with 100 μL of 75% methanol heated to 80° C. The mixture was heated to 80° C. on a heating plate, held for 3 minutes, then placed on a magnetic frame to aspirate the supernatant, and dried at room temperature for 45 minutes to a volume of 10 μL using a centrifugal evaporator. The sample was then resuspended in 50 μL of 100 μM EDTA/1% MeOH and ready for LC-MS analysis to determine the capping of RNA in the transcription reaction. Since there is a significant difference in molecular weight between capped and uncapped bases, the capping rate of mRNA transcription initiated by different cap analogs can be determined based on the difference in molecular mass.

A short description of series [3]: Characterization of lipid nanoparticles encapsulating Fluc-mRNA. It is filed as physicochemical. How it is done: Cationic lipid YK-009 (Beijing Youcare Kechuang Pharmaceutical Technology Co., Ltd.), DSPC (AVT (Shanghai) Pharmaceutical Technology Co., Ltd.), cholesterol (AVT (Shanghai) Pharmaceutical Technology Co., Ltd.), and DMG-PEG2000 were dissolved in ethanol at a molar ratio of 49:10:39.5:1.5, and the mRNA was diluted in 50 mM citrate buffer (pH=4). The ethanol lipid solution was mixed with the Fluc-mRNA aqueous solution prepared from different cap structures at a volume ratio of 1:3 using a microfluidic device at a flow rate of 10 mL/min to prepare LNPs at a weight ratio of total lipid to mRNA of approximately 15:1. The resulting liposomes were diluted to 10-fold volume with PBS, and then ultrafiltered with a 300 KDa ultrafiltration tube to remove ethanol. The volume was then fixed to a certain volume with PBS. Finally, the LNPs were filtered through a 0.2 μm sterile filter to obtain an LNP preparation encapsulating Fluc-mRNA using YK-009/DSPC/cholesterol/DMG-PEG2000 (at a molar ratio of 49:10:39.5:1.5).
The particle size and polydispersity index (PDI) were determined by dynamic light scattering using a Malvern laser particle size analyzer. 10 μL of the liposome solution was taken, diluted to 1 mL with RNase-free deionized water, and added to a sample pool. Each sample was measured in triplicate. The measurement conditions were: a scattering angle of 90° and a temperature of 25° C. The encapsulation efficiency of LNPs was determined using the Quant-iT RiboGreen RNA Quantification Kit (Thermo Fisher Scientific, UK) according to the manufacturer's instructions.

The target in a further series is T2, DCP2 enzyme (Schizosaccharomyces pombe, UniProt O13828).
T2 construct: purchased New England Biolabs
T2 sequence (O13828 1-243 limits assumed): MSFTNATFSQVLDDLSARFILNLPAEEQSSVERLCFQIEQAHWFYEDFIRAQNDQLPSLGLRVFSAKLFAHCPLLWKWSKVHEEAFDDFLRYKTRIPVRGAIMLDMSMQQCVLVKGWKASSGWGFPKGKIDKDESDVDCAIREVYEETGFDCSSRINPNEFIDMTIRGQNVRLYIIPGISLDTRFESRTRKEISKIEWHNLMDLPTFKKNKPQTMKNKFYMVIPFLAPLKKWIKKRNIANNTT
T2 sequence (Q9P805 1-127 partner): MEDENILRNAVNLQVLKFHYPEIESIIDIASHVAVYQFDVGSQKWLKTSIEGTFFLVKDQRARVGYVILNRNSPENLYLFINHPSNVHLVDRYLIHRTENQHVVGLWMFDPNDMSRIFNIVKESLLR
T2 sequence (Q10108 155-180 partner limits assumed): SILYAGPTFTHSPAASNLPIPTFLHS
In words: Decapping enzyme stability test. It is filed as biochemical. The conditions noted are these: 30 pmol RNA, 50 U mRNA decapping enzyme, 37° C., 45 minutes. As to the method: 30 pmol of RNAs purified by polyacrylamide gel electrophoresis (PAGE) was subjected to an enzymatic reaction with 50 U of mRNA decapping enzyme (New England Biolabs) and 1×MDE buffer at 37° C. for 45 minutes. The enzymatic reactants were subjected to PAGE and stained with SYBR Green II (Lonza), followed by observation of the post-electrophoresis gel image on a Typhoon FLA 7000 (GE Healthcare) instrument. The electrophoresis band intensity ratio of RNA capping to RNA decapping was counted using ImageQuant (GE Healthcare) software, and the decapping rate of the decapping enzyme was calculated (as shown in Table 6).

The next series relates to BALB/C mice. In words: In vivo imaging of protein expressed by LNP-carrying Fluc-mRNA in mice. The conditions noted are these: female BALB/C mice. How it is done:
The LNP preparation containing […] of Fluc-mRNAs transcribed using the cap analogs YK-CAP-001 to 006 in the present disclosure and the cap analogs N-7413, compound 14, and m6A in the prior art was intramuscularly injected into female BALB/C mice aged 4 to 6 weeks and weighing 17 to 19 g. At specific time points after administration (6 hours, 12 hours, 24 hours, 48 hours, 96 hours, and 168 hours), the mice were intraperitoneally injected with fluorescence imaging substrate. The mice were then allowed to move freely for 5 minutes, followed by detection of the average radiation intensity (corresponding to the amount of protein expression) of the protein expressed by LNP-carrying mRNA in the mice using an IVIS Spectrum small-animal in vivo imaging system.

T1 sequence (P00573 whole entry): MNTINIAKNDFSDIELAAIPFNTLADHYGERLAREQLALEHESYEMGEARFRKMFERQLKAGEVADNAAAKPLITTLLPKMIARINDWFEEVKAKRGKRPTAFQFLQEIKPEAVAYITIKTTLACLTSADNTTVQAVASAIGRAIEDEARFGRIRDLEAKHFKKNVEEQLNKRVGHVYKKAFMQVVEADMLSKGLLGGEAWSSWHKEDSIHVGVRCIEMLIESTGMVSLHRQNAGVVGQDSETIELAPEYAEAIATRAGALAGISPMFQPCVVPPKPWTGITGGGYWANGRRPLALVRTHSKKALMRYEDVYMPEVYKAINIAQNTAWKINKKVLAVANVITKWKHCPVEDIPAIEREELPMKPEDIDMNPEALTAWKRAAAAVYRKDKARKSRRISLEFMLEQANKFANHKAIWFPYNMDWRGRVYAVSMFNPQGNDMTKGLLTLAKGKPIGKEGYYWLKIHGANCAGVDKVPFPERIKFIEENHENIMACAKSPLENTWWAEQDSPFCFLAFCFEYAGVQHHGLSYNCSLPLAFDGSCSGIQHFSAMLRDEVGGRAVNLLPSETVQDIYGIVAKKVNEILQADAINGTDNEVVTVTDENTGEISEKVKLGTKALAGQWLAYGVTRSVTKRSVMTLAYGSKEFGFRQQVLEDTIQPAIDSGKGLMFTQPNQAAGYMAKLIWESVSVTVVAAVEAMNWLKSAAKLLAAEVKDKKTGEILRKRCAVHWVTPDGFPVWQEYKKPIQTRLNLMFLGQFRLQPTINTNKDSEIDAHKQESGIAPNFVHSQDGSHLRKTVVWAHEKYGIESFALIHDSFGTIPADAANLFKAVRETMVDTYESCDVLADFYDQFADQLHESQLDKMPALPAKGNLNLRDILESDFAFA

Take `COC1C(OP(=O)([O-])OC[C@H]2O[C@@H](n3cnc4c(=O)[nH]c(N)nc43)C(O)C2O)[C@@H](COP(=O)(O)OP(=O)(O)OP(=O)(O)OC[C@]23O[C@@H]([n+]4cn(C)c5c(=O)[nH]c(N)nc54)C(O[C@H]2CCN(C)C)C3O)O[C@H]1n1cnc2c(N)ncnc21` (stereo partly shown) [YK-CAP-001]: the “in vitro transcription yield of mRNA” value on T7 RNA polymerase [1] is 89.3. Also, the “Yield per unit template” value on T7 RNA polymerase [1] (in vitro transcription, 1 μg DNA template, 20 μL system, 37° C. 2 hours) was 89.3 µg. At T7 RNA polymerase [2], this compound came in with a Capping rate of 73.1%. Moreover, in series [3] (LNP (YK-009/DSPC/cholesterol/DMG-PEG2000) encapsulating Fluc-mRNA transcribed using the cap analog), the Particle size is reported as 86.13 nm. Besides, the PDI in series [3] (LNP encapsulating Fluc-mRNA transcribed using the cap analog) was 0.044. In addition, the EE in series [3] (encapsulation efficiency of LNP encapsulating Fluc-mRNA transcribed using the cap analog) was 95.7%. Also, the “Decapping rate (%) of DCP2 enzyme” value at DCP2 enzyme amounted to 26.3%. The Average radiation intensity with BALB/C mice (6 h after intramuscular injection of LNP Fluc-mRNA) amounted to 1728300 p/s/cm^2/sr; in the series with BALB/C mice (12 h after intramuscular injection of LNP Fluc-mRNA), 985800 p/s/cm^2/sr; in the series on BALB/C mice (24 h after intramuscular injection of LNP Fluc-mRNA) it was 612430 p/s/cm^2/sr; in the series on BALB/C mice (48 h after intramuscular injection of LNP Fluc-mRNA), 578750 p/s/cm^2/sr; in the series with BALB/C mice (96 h after intramuscular injection of LNP Fluc-mRNA), 43485 p/s/cm^2/sr; with BALB/C mice (168 h after intramuscular injection of LNP Fluc-mRNA), 10467 p/s/cm^2/sr.
